# From patent publication US20240002416A1 (Rheinische-Friedrich-Wilhelms-Universität Bonn, priority 2020, published 2024)
# Assays:
# MRGPRX4-83S [1] = molecular target: T1, MRGPRX4-83S (Homo sapiens, UniProt Q96LA9, L83S); assay: β-arrestin assay (CHO β-arrestin human MRGPRX4-83S); type: cell-based; set-up: host or cells: CHO β-arrestin cells; settings: for Emax: efficacy based on 100 nM B-16 (set as 100%), read-out: Emax; for EC50: β-arrestin recruitment, CHO cells, MRGPRX4-83S, read-out: EC50 ± SEM
# In short: (§1)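 Calcium responses were recorded in astrocytes engineered to express the 83L receptor and in LN229 glioblastoma cells that express the 83S form natively. Arrestin recruitment was detected by β-galactosidase complementation in recombinant CHO cells.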
# human MRGPRX4-83L [2] = molecular target: T2, human MRGPRX4-83L (Homo sapiens, UniProt Q96LA9); assay: Calcium assay (human MRGPRX4 83L), recombinant astrocytes; type: cell-based; settings: for EC50: calcium mobilization, MRGPRX4-83L, read-out: EC50 ± SEM; for Emax: efficacy based on maximal effect of 1 μM B-16 (set as 100%), read-out: Emax
# T2 construct: host or cells: CHO β-arrestin cells
# In short: as §1
# human MRGPRX4-83L [3] = molecular target: T2, human MRGPRX4-83L; assay: β-arrestin assay (CHO β-arrestin ARMS1-ProLink 2 human MRGPRX4 83L); type: cell-based; settings: for IC50: inhibition of the effect of 2.6 μM B-16; for EC50: β-arrestin recruitment, CHO cells, MRGPRX4-83L, read-out: EC50 ± SEM; for Emax: efficacy based on maximal effect of 100 nM B-16 (set as 100%), read-out: Emax
# In short: as §1
# MRGPRX4-83S [4] = molecular target: T1, MRGPRX4-83S; assay: Calcium assay (human glioblastoma LN229 cells expressing the MRGPRX4-83S); type: cell-based; set-up: LN229 glioblastoma cells natively expressing the MRGPRX4-83S; endogenous in cells; host or cells: LN229 human glioblastoma cells; settings: for Emax: LN-229, efficacy based on 30 μM H-1 (set as 100%), read-out: Emax; for Emax / EC50: Table 3; for EC50: calcium mobilization, LN229 cells, MRGPRX4-83S, read-out: EC50 ± SEM
# Protocol: For β-arrestin recruitment assays, recombinant Chinese hamster ovary (CHO) cells expressing the human MRGPRX4 were used (DiscoverX/Eurofins) which allowed to measure β-galactosidase complementation upon β-arrestin recruitment. For calcium mobilization assays, recombinant astrocytes expressing MRGPX4-83L, or LN229 glioblastoma cells natively expressing the MRGPRX4-83S, were used.
# The assays were performed as previously described for other rhodopsin-like GPCRs (Müller, C.E.; 8-Benzamidochromen-4-one-2-carboxylic acids: potent and selective agonists for the orphan G protein-coupled receptor GPR35. J. Med. Chem. 2013, 56:5182-97; Müller, C.E. Molecular Recognition of Agonists and Antagonists by the Nucleotide-Activated G Protein-Coupled P2Y2 Receptor. J. Med. Chem. 2017, 60:8425-8440).
# [5] = Table 1, means of 3-4 experiments
# T1 sequence (Q96LA9 whole entry L83S): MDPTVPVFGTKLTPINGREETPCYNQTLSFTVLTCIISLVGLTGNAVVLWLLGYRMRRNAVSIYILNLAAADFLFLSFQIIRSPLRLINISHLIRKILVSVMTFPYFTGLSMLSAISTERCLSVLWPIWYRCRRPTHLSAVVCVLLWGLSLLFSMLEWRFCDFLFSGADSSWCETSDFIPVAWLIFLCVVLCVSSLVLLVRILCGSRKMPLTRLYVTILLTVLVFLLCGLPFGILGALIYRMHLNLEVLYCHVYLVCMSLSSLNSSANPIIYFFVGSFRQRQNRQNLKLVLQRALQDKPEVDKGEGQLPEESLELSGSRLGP
# T2 sequence (Q96LA9 whole entry): as the sequence (Q96LA9 whole entry L83S) above, with S83L counted along it
melting point,SMILES,EC50 (human MRGPRX4-83L [2]; Table 1),IC50 (human MRGPRX4-83L [3]; Table 1),EC50 (human MRGPRX4-83L [3]; [5]),EC50 (MRGPRX4-83S [1]; Table 2),IC50 (human MRGPRX4-83L [2]),further results
254 to 256 °C,"C#CCn1c(=O)c2[nH]c(CCc3ccc(OC)c(OC)c3)nc2n(CCCCP(=O)(O)O)c1=O [B-11, (4-(8-(3,4-Dimethoxyphenethyl)-2,6-dioxo-1-(prop-2-yn-1-yl)-1,2,6,7-tetrahydro-3H-purin-3-yl)butyl)phosphonic acid]",28 ± 3.3 µM,50.5 ± 1.4 µM,> 10 µM,,,IC50 (MRGPRX4-83S [1]): 9.72 ± 1.05 µM; Emax (human MRGPRX4-83L [2]; Table 1): 100%
202 to 204 °C,"C#CCn1c(=O)c2c(nc(CCc3ccccc3I)n2CC)n(CCCCP(=O)(O)O)c1=O [B-31, (4-(7-Ethyl-8-(2-iodophenethyl)-2,6-dioxo-1-(prop-2-yn-1-yl)-1,2,6,7-tetrahydro-3H-purin-3-yl)butyl)phosphonic acid]",,,,,,Emax (MRGPRX4-83S [1]; Table 3): 89%; EC50 (MRGPRX4-83S [1]; Table 3): 9.37e-05 ± 5.23e-05 µM; EC50 (human MRGPRX4-83L [2]; Table 4): 0.000389 ± 9.2e-05 µM; Emax (human MRGPRX4-83L [2]; Table 4): 103%; Emax (human MRGPRX4-83L [3]; Table 4): 94%; EC50 (human MRGPRX4-83L [3]; Table 4): 0.0874 ± 0.0242 µM
152 to 154 °C,"C#CCn1c(=O)c2c(nc(CCc3ccccc3C)n2CC)n(CCCCP(=O)(O)O)c1=O [B-32, (4-(7-Ethyl-8-(2-methylphenethyl)-2,6-dioxo-1-(prop-2-yn-1-yl)-1,2,6,7-tetrahydro-3H-purin-3-yl)butyl)phosphonic acid]",,,,,,Emax (MRGPRX4-83S [4]): 111%; EC50 (MRGPRX4-83S [4]): 0.000441 ± 0.000157 µM; Emax (MRGPRX4-83S [1]; Table 3): 97%; EC50 (MRGPRX4-83S [1]; Table 3): 4.24e-05 ± 1.5e-05 µM
119 to 121 °C,"C#CCn1c(=O)c2c(nc(CCc3ccc(I)cc3)n2CC2CCCC2)n(CCCCP(=O)(O)O)c1=O [B-39, (4-(7-(cyclopentylmethyl)-8-(4-iodophenethyl)-2,6-dioxo-1-(prop-2-yn-1-yl)-1,2,6,7-tetrahydro-3H-purin-3-yl)butyl)phosphonic acid]",,,,,,IC50 (MRGPRX4-83S [4]): 0.0161 ± 0.0084 µM; Emax (MRGPRX4-83S [4]): 23%; EC50 (MRGPRX4-83S [4]): 0.143 ± 0.066 µM; Emax (MRGPRX4-83S [1]; Table 3): 76%; EC50 (MRGPRX4-83S [1]; Table 3): 0.000773 ± 0.000106 µM
101 to 102 °C,"C#CCn1c(=O)c2c(nc(CCc3ccc(C(F)(F)F)cc3)n2CC2CCCC2)n(CCCCP(=O)(O)O)c1=O [B-40, (4-(7-(cyclopentylmethyl)-2,6-dioxo-1-(prop-2-yn-1-yl)-8-(4-(trifluoromethyl)phenethyl)-1,2,6,7-tetrahydro-3H-purin-3-yl)butyl)phosphonic acid]",,,,,,IC50 (MRGPRX4-83S [4]): 0.013 ± 0.0014 µM; Emax (MRGPRX4-83S [4]): 8%; EC50 (MRGPRX4-83S [4]): 0.0237 ± 0.0007 µM; Emax (MRGPRX4-83S [1]; Table 3): 77%; EC50 (MRGPRX4-83S [1]; Table 3): 0.0183 ± 0.0061 µM
179 to 181 °C,"CCn1c(=O)c2[nH]c(CCc3cccc(OC)c3)nc2n(CCCCS(=O)(=O)O)c1=O [E-2, 4-(1-Ethyl-8-(3-methoxyphenethyl)-2,6-dioxo-1,2,6,7-tetrahydro-3H-purin-3-yl)butane-1-sulfonic acid]",> 10 µM,> 10 µM,> 10 µM,> 10 µM,> 10 µM,
216 to 219 °C,"C#CCn1c(=O)c2[nH]c(CCc3ccccc3Br)nc2n(CCCCS(N)(=O)=O)c1=O [F-1, 4-(8-(2-Bromophenethyl)-2,6-dioxo-1-(prop-2-yn-1-yl)-1,2,6,7-tetrahydro-3H-purin-3-yl)butane-1-sulfonamide]",> 10 µM,> 10 µM,> 10 µM,> 10 µM,> 10 µM,
196 to 198 °C,"C#CCn1c(=O)c2[nH]c(CCc3ccccc3OC)nc2n(CCCCC(=O)O)c1=O [G-1, 5-(8-(2-Methoxyphenethyl)-2,6-dioxo-1-(prop-2-yn-1-yl)-1,2,6,7-tetrahydro-3H-purin-3-yl)pentanoic acid]",> 10 µM,> 10 µM,> 10 µM,> 10 µM,> 10 µM,
210 to 212 °C,"O=C(O)CCCCn1c(=O)n(CC2CCC2)c(=O)c2[nH]c(CCc3cccc(C(F)(F)F)c3)nc21 [G-2, 5-(1-(Cyclobutylmethyl)-2,6-dioxo-8-(3-(trifluoromethyl)phenethyl)-1,2,6,7-tetrahydro-3H-purin-3-yl)pentanoic acid]",> 10 µM,> 10 µM,> 10 µM,> 10 µM,> 10 µM,

SMILES,melting point,EC50 (human MRGPRX4-83L [2]; Table 1),IC50 (human MRGPRX4-83L [3]; Table 1),EC50 (human MRGPRX4-83L [3]; [5]),EC50 (MRGPRX4-83S [1]; Table 2),IC50 (human MRGPRX4-83L [2]),further results
"C#CCn1c(=O)c2[nH]c(CCc3ccccc3OC)nc2n(CCCCP(=O)(OCC)OCC)c1=O [C-1, Diethyl (4-(8-(2-Methoxyphenethyl)-2,6-dioxo-1-(prop-2-yn-1-yl)-1,2,6,7-tetrahydro-3H-purin-3-yl)butyl)phosphonate]",104 to 106 °C,> 10 µM,> 10 µM,> 10 µM,> 10 µM,> 10 µM,
"C#CCn1c(=O)c2c(nc(CCc3ccccc3OC)n2C)n(CCCCP(=O)(OCC)OCC)c1=O [C-2, Diethyl (4-(8-(2-methoxyphenethyl)-7-methyl-2,6-dioxo-1-(prop-2-yn-1-yl)-1,2,6,7-tetrahydro-3H-purin-3-yl)butyl)phosphonate]",124 to 146 °C,> 10 µM,> 10 µM,> 10 µM,> 10 µM,> 10 µM,
"C#CCn1c(=O)c2[nH]c(CCc3cccc(Br)c3)nc2n(CCCCP(=O)(OCC)OCC)c1=O [C-3, Diethyl (4-(8-(3-bromophenethyl)-2,6-dioxo-1-(prop-2-yn-1-yl)-1,2,6,7-tetrahydro-3H-purin-3-yl)butyl)phosphonate]",133 to 135 °C,> 10 µM,> 10 µM,> 10 µM,> 10 µM,> 10 µM,
"C#CCn1c(=O)c2[nH]c(CCc3cccc(C)c3)nc2n(CCCCP(=O)(OCC)OCC)c1=O [C-4, Diethyl (4-(8-(3-methylphenethyl)-2,6-dioxo-1-(prop-2-yn-1-yl)-1,2,6,7-tetrahydro-3H-purin-3-yl)butyl)phosphonate]",111 to 113 °C,> 10 µM,> 10 µM,> 10 µM,> 10 µM,> 10 µM,
"C#CCn1c(=O)c2c(nc(CCc3cccc(C(F)(F)F)c3)n2C)n(CCCCP(=O)(OCC)OCC)c1=O [C-5, Diethyl (4-(7-methyl-2,6-dioxo-1-(prop-2-yn-1-yl)-8-(3-(trifluoromethyl)phenethyl)-1,2,6,7-tetrahydro-3H-purin-3-yl)butyl)phosphonate]",121 to 124 °C,> 10 µM,> 10 µM,> 10 µM,> 10 µM,> 10 µM,
"CCOP(=O)(CCCCn1c(=O)n(CC2CCC2)c(=O)c2[nH]c(CCc3cccc(OC)c3)nc21)OCC [C-7, Diethyl (4-(1-(cyclobutylmethyl)-8-(3-methoxyphenethyl)-2,6-dioxo-1,2,6,7-tetrahydro-3H-purin-3-yl)butyl)phosphonate]",82 to 84 °C,> 10 µM,> 10 µM,> 10 µM,> 10 µM,> 10 µM,
"CCOP(=O)(CCCCn1c(=O)n(CC)c(=O)c2[nH]c(C3CC3c3ccccc3)nc21)OCC (stereo not shown) [C-9, Diethyl (4-(1-ethyl-2,6-dioxo-8-(2-phenylcyclopropyl)-1,2,6,7-tetrahydro-3H-purin-3-yl)butyl)phosphonate]",124 to 126 °C,> 10 µM,> 10 µM,> 10 µM,> 10 µM,> 10 µM,
"C#CCn1c(=O)c2[nH]c(CCc3ccccc3OC)nc2n(CCCCP(=O)(O)OCC)c1=O [D-2, Ethyl hydrogen (4-(8-(2-methoxyphenethyl)-2,6-dioxo-1-(prop-2-yn-1-yl)-1,2,6,7-tetrahydro-3H-purin-3-yl)butyl)phosphonate]",172 to 174 °C,3.32 ± 0.61 µM,,0.113 ± 0.033 µM,0.000493 ± 0.000104 µM,,Emax (MRGPRX4-83S [1]; Table 2): 141%; Emax (human MRGPRX4-83L [2]; Table 1): 103%; Emax (human MRGPRX4-83L [3]; Table 1): 122%
